Measured values reported in US10738041B2, “Ferroportin inhibitors” (Vifor (International) AG, priority 2015, dated 2020).
Like-named read-outs stand apart in the source and are kept apart here.

Assays:
human Fpn-GFP fusion [1] = biological target: T1, human Fpn-GFP fusion (Homo sapiens, UniProt Q9NP59); experiment: Inhibition of ferroportin mediated iron export activity in an iron response assay (BLAzer); assay type: cell-based
T1 construct: expressed in transfected cells; host or cells: HEK-293 cell line #354 (derivative of HEK-293 Tet-ON Advanced, Clontech)
T1 sequence (Q9NP59 1-571): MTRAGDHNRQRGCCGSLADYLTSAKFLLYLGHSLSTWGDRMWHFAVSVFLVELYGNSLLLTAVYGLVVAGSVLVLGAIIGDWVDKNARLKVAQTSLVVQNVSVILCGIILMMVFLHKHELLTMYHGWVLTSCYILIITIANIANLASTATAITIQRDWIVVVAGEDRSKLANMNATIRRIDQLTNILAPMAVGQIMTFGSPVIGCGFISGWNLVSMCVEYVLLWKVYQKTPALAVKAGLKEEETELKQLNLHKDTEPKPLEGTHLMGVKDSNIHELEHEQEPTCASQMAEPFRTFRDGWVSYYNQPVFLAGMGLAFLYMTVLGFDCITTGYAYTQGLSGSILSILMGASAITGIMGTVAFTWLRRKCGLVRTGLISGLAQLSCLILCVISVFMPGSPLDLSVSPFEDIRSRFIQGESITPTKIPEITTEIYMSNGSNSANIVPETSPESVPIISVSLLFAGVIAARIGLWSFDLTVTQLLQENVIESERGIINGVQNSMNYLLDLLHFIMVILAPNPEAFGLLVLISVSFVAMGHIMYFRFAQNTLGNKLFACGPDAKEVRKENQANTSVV
Text: Intracellular iron levels are indirectly measured in this assay by monitoring the activity of a beta-lactamase (BLA) reporter gene fused to the human ferritin promoter and the associated iron regulatory element (IRE) contained within the 5′ untranslated region of the ferritin mRNA. Expression of ferroportin (Fpn) in such a cell line leads to iron efflux and lower iron levels as reflected by lower activity of the reporter gene. On the other hand, inhibition of Fpn-mediated iron efflux results in elevated cellular iron levels which is detected as increased reporter gene activity. Small molecular weight Fpn inhibitor compounds were tested for dose-dependent effects in this in vitro iron response assay as described below.
The HEK-293 cell line #354 was generated by stable integration of (i) a human Fpn-GFP fusion construct inserted in a derivative of the doxycycline-inducible pTRE-Tight-BI plasmid (Clontech, Cat. 631068) and (ii) a human ferritin promoter-BLA reporter gene into a derivative of the HEK-293 Tet-ON Advanced cell line (Clontech). […] After overnight incubation, 10 μl/well of dilution series of the test compounds were added in quadruplicates and plates were further incubated overnight at 37° C. with 5% CQ. Cells were washed 3 times with HBSS leaving 25 μl per well. BLA activity was detected by adding 5 μl/well of the GeneBlazer reagent CCF4-AM (Invitrogen, Cat. K1085) to the cells. After incubation of the plates in the dark at 18° C. for 60 min., blue and green fluorescence signals were measured in a Safre2 fluorescence plate reader (Tecan) with excitation at 410 nm and emissions at 458 nm (blue) and 522 nm (green). The ratio of blue/green fluorescence as a measure for BLA activity was calculated and EC50 values were determined with the calculated blue/green fluorescence ratios as described for the hepcidin internalization assay.

human Fpn-GFP fusion [2] = biological target: T1, human Fpn-GFP fusion; experiment: Ferroportin Internalization and Degradation Assay (FACS); assay type: cell-based
Procedure: Growing HEK-293 #354 cells in doxycycline containing media induced expression of human Fpn-GFP fusion protein on the cell surface. […] Small molecular weight Fpn inhibitor compounds were tested for dose-dependent effects on the Fpn-GFP mean fluorescence intensity (MFI) on HEK-293 cell line #354, as described below. HEK #354 cells were harvested from ca. 80% confluent cultures, seeded at 0.6×10^6 (cells/ml in DMEM/F12 GlutaMAX™ medium (Invitrogen, Cat. 31331-028) containing 10% FBS (Clontech, Cat. 631106), 1% Penicillin-Streptomycin (Invitrogen, Cat. 15140-122), 200 μg/ml Hygromycin B (Invitrogen, Cat. 10687-010), Blasticidin 5 μg/ml, (Invitrogen, Cat. R210-01), 4 μg/ml doxycycline (Clontech, Cat. 631311), 50 μl per well of 384 well plates (Greiner; Cat. 781091) and grown at 37° C. with 5% CQ. After overnight incubation, 10 μl/well of dilution series of the test compounds were added in quadruplicates and plates were further incubated overnight at 37° C. with 5% CO2. Cells were washed once with FACS buffer (PBS containing 1% FBS, 2 mM EDTA and 0.05% NaN3), harvested in FACS buffer with 0.5 μg/ml propidium iodide (Sigma, Cat. P4864) and analyzed in a flow cytometer (CANTO™ II, BD Biosciences) equipped with high throughput sampler. Live HEK #354 cells were gated as propidium iodide negative population and analyzed for expression of Fpn-GFP.

[3] = average of multiple measurements, HEK-293 cell line #354, read-out: BLAzer EC50
[4] = average of multiple measurements; Fpn-GFP MFI, HEK-293 cell line #354, FACS
[5] = average of multiple measurements; Fpn-GFP MFI, HEK-293 cell line #354, FACS; read-out: EC50 ferroportin internalization and degradation

| SMILES | EC50 (human Fpn-GFP fusion [1]; [3]) [nM] | EC50 (human Fpn-GFP fusion [2]; [4]) [nM] | DC50 (human Fpn-GFP fusion [2]; [5]) [nM] | EC50 (human Fpn-GFP fusion [1]) [nM] | DC50 (human Fpn-GFP fusion [2]; read-out: EC50 ferroportin internalization and degradation; average of multiple measurements; Fpn-GFP MFI, HEK-293 cell line #354, FACS) [nM] |
| --- | --- | --- | --- | --- | --- |
| O=C(NCc1ccccn1)c1csc(CCNCc2nc3ccccc3[nH]2)n1 [Example 12] | 8270 |  |  |  |  |
| O=C(NC1CCc2cccnc21)c1csc(CCNCc2nc3ccccc3[nH]2)n1 (centres unmarked) [Example 39] | 2900 |  |  |  |  |
| O=C(NCc1ncccc1Cl)c1csc(CCNCc2nc3ccccc3[nH]2)n1 [Example 82] | 760 | 689 |  |  |  |
| Cc1cnccc1CNC(=O)c1csc(CCNCc2nc3ccccc3[nH]2)n1 [Example 90] | 4030 |  |  |  |  |
| O=C(NCc1ncccc1F)c1csc(CCNCCc2nc3ccccc3[nH]2)n1 [Example 94] | 530 | 220 |  |  |  |
| O=C(NCc1ncccc1F)c1cnn(CCNCCc2nc3ccccc3[nH]2)c1 [Example 111] | 620 | 75 |  |  |  |
| O=C(NCc1ncc(F)cc1F)c1csc(CCNCCc2nc3ccccc3[nH]2)n1 [Example 116] | 2790 | 590 |  |  |  |
| O=C(NCc1ncccc1F)c1csc(CNCCc2nc3ccccc3[nH]2)n1 [Example 118] | 2690 | 4910 |  |  |  |
| O=C(NCc1ncccc1F)c1csc(CCNCCc2nc3cc(F)ccc3[nH]2)n1 [Example 120] | 1600 | 530 |  |  |  |
| O=C(NCc1cccnn1)c1csc(CCNCCc2nc3ccccc3[nH]2)n1 [Example 122] | 4330 | 3020 |  |  |  |
| O=C(NCc1ncccc1F)c1coc(CCNCc2nc3ccccc3[nH]2)n1 [Example 126] | 1260 | 757 |  |  |  |
| O=C(NCc1ncccc1F)c1coc(CCNCCc2nc3ccccc3[nH]2)n1 [Example 127] | 420 | 81 |  |  |  |
| O=C(NCc1ncccc1F)c1csc(CCCNCc2nc3ccccc3[nH]2)n1 [Example 134] | 4090 | 5190 |  |  |  |
| O=C(NCc1ccccn1)c1coc(CCNCc2nc3ccccc3[nH]2)n1 [Example 137] | 5750 | 11100 |  |  |  |
| O=C(NCc1ncccc1Cl)c1cnn(CCNCc2nc3ccccc3[nH]2)c1 [Example 138] | 1720 | 678 |  |  |  |
| O=C(NCc1ncccc1Cl)c1coc(CCNCc2nc3ccccc3[nH]2)n1 [Example 141] | 1110 | 290 |  |  |  |
| O=C(NCc1ncccc1Cl)c1cnn(CCNCCc2nc3ccccc3[nH]2)c1 [Example 144] | 470 | 43 |  |  |  |
| O=C(NCc1ncccc1F)c1nc(CCNCc2nc3ccccc3[nH]2)sc1Cl [Example 151] | 720 | 523 |  |  |  |

| SMILES | EC50 (human Fpn-GFP fusion [1]; [3]) [nM] | EC50 (human Fpn-GFP fusion [2]; [4]) [nM] | DC50 (human Fpn-GFP fusion [2]; [5]) [nM] | EC50 (human Fpn-GFP fusion [1]) [nM] | DC50 (human Fpn-GFP fusion [2]; read-out: EC50 ferroportin internalization and degradation; average of multiple measurements; Fpn-GFP MFI, HEK-293 cell line #354, FACS) [nM] |
| --- | --- | --- | --- | --- | --- |
| O=C(NCc1ncccc1F)c1csc(CCN(CCc2nc3ccccc3[nH]2)CCc2nc3ccccc3[nH]2)n1 [Example 152] | 170 | 71 |  |  |  |
| O=C(NCc1ncccc1F)c1nc(CCNCCc2nc3ccccc3[nH]2)sc1Cl [Example 154] | 740 | 130 |  |  |  |
| O=C(NC1CCc2cccnc21)c1csc(CCNCCc2nc3ccccc3[nH]2)n1 (centres unmarked) [Example 158] | 620 | 325 |  |  |  |
| O=C(NCc1cccnn1)c1nc(CCNCc2nc3ccccc3[nH]2)sc1Cl [Example 161] | 17200 | 5300 |  |  |  |
| O=C(NCc1ncccc1F)c1ncn(CCNCc2nc3ccccc3[nH]2)n1 [Example 169] | 8230 | 4120 |  |  |  |
| O=C(NCc1ncccc1F)c1ncn(CCNCCc2nc3ccccc3[nH]2)n1 [Example 181] | 3720 | 930 |  |  |  |
| O=C(NCc1ncccc1F)c1csc(CCNCC(F)(F)c2nc3ccccc3[nH]2)n1 [Example 196] | 12700 |  | 24800 |  |  |
| O=C(NCc1ncccc1F)c1coc(C2CN(CCc3nc4ccccc4[nH]3)C2)n1 [Example 208] | 500 | 150 |  |  |  |
| O=C(NCc1ncccc1F)c1cccc(CNCCc2nc3ccccc3[nH]2)c1 [Example 224] | 8200 |  | 1830 |  |  |
| O=C(NCc1ncccc1F)c1coc(CCNCCc2nc3c(Cl)cccc3[nH]2)n1 [Example 226] | 2340 | 490 |  |  |  |
| O=C(NCc1ncccc1F)c1coc(CCNCCc2nc3c(F)cccc3[nH]2)n1 [Example 228] | 2120 | 460 |  |  |  |
| Cc1oc(CCNCCc2nc3ccccc3[nH]2)nc1C(=O)NCc1ncccc1F [Example 230] | 6380 | 950 |  |  |  |
| O=C(NCc1ncccc1F)c1coc(C2CN(CCc3nc4c(F)cccc4[nH]3)C2)n1 [Example 239] | 880 | 320 |  |  |  |
| O=C(NCc1ncccc1F)c1csc(CCNCCc2nc3c(F)cccc3[nH]2)n1 [Example 243] | 1400 | 510 |  |  |  |
| O=C(NCc1ncccc1F)c1coc(CCNCCc2nc3c(F)cc(F)cc3[nH]2)n1 [Example 249] | 1550 | 950 |  |  |  |
| O=C(NCc1ncccc1F)c1coc(CCNCCc2nc3cc(F)ccc3[nH]2)n1 [Example 250] | 460 | 600 |  |  |  |
| O=C(NCc1ncccc1F)c1cncc(C2CN(CCc3nc4ccccc4[nH]3)C2)c1 [compound 237] | 2460 |  |  |  |  |
| CC[C@H](C)[C@@H]1NC(=O)[C@@H](NC(=O)[C@@H](NC(=O)[C@@H]2CCCN2C(=O)[C@H](Cc2ccccc2)NC(=O)[C@H](Cc2c[nH]cn2)NC(=O)[C@@H](NC(=O)[C@@H](N)CC(=O)O)[C@@H](C)O)[C@@H](C)CC)CSSC[C@@H](C(=O)N[C@@H](CCCCN)C(=O)N[C@H](C(=O)O)[C@@H](C)O)NC(=O)[C@@H]2CSSC[C@@H]3NC(=O)[C@@H]4CSSC[C@H](NC(=O)[C@H](Cc5ccccc5)NC1=O)C(=O)N[C@@H](CSSC[C@H](NC(=O)[C@H](CCCCN)NC(=O)[C@H](CO)NC(=O)[C@H](CCCNC(=N)N)NC(=O)[C@H](Cc1c[nH]cn1)NC3=O)C(=O)NCC(=O)N[C@@H](CCSC)C(=O)N2)C(=O)NCC(=O)N4 [hepcidin, reference compound] |  |  |  | 96 ± 63 | 4 ± 2 |
